Like-named read-outs stand apart in the source and are kept apart here.

Series [1] in a line: Biological availability, blood and liver of rats. The series is classed as in vivo. The note with it: intraperitoneal 100 mg/kg. The procedure:
The biological availability of giniquine was studied on common white male rats with a mass of 150-200 g and common white male mice with a mass of 25-30 g. The test began seven days after Ehrlich ascitic carcinoma was inoculated to the animals.
Giniquine was injected intraperitoneally in 100 mg/kg doses, using distilled water as a solvent. The animals were slaughtered at preset time intervals (5,15,30 and 60 minutes) and a biological material (blood and liver for rats and ascites for mice) was taken for analysis. To separate ascitic fluid from the tumor cells, ascites was centrifuged at 2000 r.p.m. for 10 minutes. The precipitate was washed with a mixture of physiological solution and heparin and was again centrifuged under the same conditions, 20% homogenates in distilled water were prepared from ascitic cells.
Giniquine was extracted from the biological material with chloroform.
The extraction procedure comprised the following stages: 0.1 ml of ethyl alcohol were added to 1 ml of tested sample and the solution was thoroughly mixed with 0.5 ml of a saturated potassium carbonate solution, then 4 ml of chloroform was added. Closed test tubes were vigorously shaken on a rocker for one hour. After the shaking, the samples were centrifuged at 5000 r.p.m. for ten minutes. The chloroform layer was used for analysis. Daylight was avoided.
Concentration of the preparation in biological samples was determined by spectrophotometry at 400 nm using molar absorption factor (ε0.10^-3 =36.04).
The results were expressed in μg/ml of sample. Minimum sensitivity of the method was 1.1 μg/ml.

The subject of a further series is Ehrlich ascitic tumor. Description: Antitumor activity, life prolongation of mice with Ehrlich ascitic tumor. The format is in vivo. As for the experimental part: The experiment was conducted as follows. 10^6 cells of Erlich tumuor were injected in common white mice intraperitoneally, the dose being given per each animal. […] Each dose of the preparation was tested in six mice. The control group included 18 mice. Giniquine solution was prepared by dissolving the substance ex tempore in distilled water or in a buffer. The effect of the preparation is shown on charts 1,2,3.

In a further series the test system is melanoma B16. Description: Antitumor activity, melanoma B16. The format is in vivo, mice. As for the experimental part:
Apart from the tests on Ehrlich ascitic tumor, giniquine was studied on twelve more inoculated tumors. Seven tumors (melanoma B16, sarcoma AK, large intestine carcinoma acatol-1, sarcoma 180, adenocarcinoma 755, Lewis lung carcinoma and sarcoma 37) were inoculated subcutaneously with 50 mg of tumoral cells per mouse. Four tumors (lymphatic leukemies L 5178, L 5178Y, L 1210 and P-388) were inoculated intraperitoneally with 10^6 cells per mouse. One tumor (La, hemocytoblastosis) was inoculated intraperitoneally by injecting 50 mg of cell suspension of spleen and liver of mice suffering La hemocytoblastosis, per mouse. […] The rate of deceleration of the tumor growth was established 14 days after the ultimate injection of giniquine; life of test animals was recorded for 60 days.

The mark [2] stands for this setting: BDF1 male mice, intraperitoneal, days 1,2,5,6,7, optim. daily dose 17.0 mg/kg.

For `CCN(CC)CCCC(C)NC(=O)c1cc(C=Cc2ccc([N+](=O)[O-])o2)nc2ccccc12` (stereo not drawn) [giniquine, 2-[2'-(5"-nitrofuryl-2")vinyl]quinoline-4-carboxylic acid (α-methyl-δ-diethylaminobutyl)amide triphosphate], in series [1] (blood), the “time of detection in blood” value is on record as “as early as in five minutes”. In series [1] (rat, blood, ip, 30 minutes, read-out: maximum level in blood), the Cmax at 0.5 h was found to be 23000 ng/mL. Further, the Tmax in series [1] (rat, ip, blood, read-out: time of maximum level in blood (converted)) is 30 min; in series [1] (rat, ip, liver, read-out: time of maximum concentration in liver (converted)) it was 20 min. For the same compound, the Cmax in series [1] (rat, ip, liver, read-out: maximum concentration in liver) was 28000 ng/mL. In addition, in series [1] (rat, serum, ip, 60 minutes, read-out: content in blood serum), the concentration at 1 h amounted to 3000 ng/mL. Besides, the “dependence of antitumoral effect on solution concentration” value in the series on Ehrlich ascitic tumor (0.1 to 0.35% solution) is “did not change within this range of concentrations”. In addition, the prolongation of life was 100% in the series on Ehrlich ascitic tumor (Chart 1, intraperitoneal injection); 25% in the series on Ehrlich ascitic tumor (Chart 1, intravenous injection); 100% in the series on Ehrlich ascitic tumor (Chart 3, intraperitoneal injection on 7th day); 55% with Ehrlich ascitic tumor (Chart 3, intraperitoneal injection on 14th day); 90% in the series on Ehrlich ascitic tumor (Chart 3, intraperitoneal injection on first day after implantation); 80% in the series on Ehrlich ascitic tumor (Chart 3, intraperitoneal injection on third day). In addition, the “antitumor effect, single versus five injections” value in the series with Ehrlich ascitic tumor (Chart 2, single intraperitoneal injection on first day vs five injections at 1,2,3,4,7 days) is recorded as “the same”. The “Deceleration of tumor growth” value in the series with melanoma B16 (setting [2]) came out at 48%. In the series on melanoma B16 (setting [2]), the “Max. prolongation of life” value is given as 10%. For the same compound, in the series with melanoma B16 (melanoma B16), the “antitumor effect (in words)” value is given as “slight antitumor effect”.

Values taken from patent US4201784A, “Substituted 2-[2'-(5"-nitrofuryl-2")vinyl-and 4'-(5"-nitrofuryl-2"-1,3-butadieryl]quinoline-4-carboxylic acid amides and salts thereof” (Institut Organicheskogo Sinteza Akademii Nauk Latviiskoi SSR, priority 1977, dated 1980).
